Measurements: patent publication US9668995B2, “Treatment of motor fluctuations” (Motac Neuroscience Limited, priority 2000, dated 2017)

Test system: MPTP-lesioned marmoset model of Parkinson's disease
Assay: L-DOPA-induced fluctuations in locomotion in the MPTP-lesioned marmoset model of Parkinson's disease
Format: in vivo, Marmosets (Callithrix jacchus)
Conditions: 8-OH PIPAT 10 mg/kg co-administered with L-DOPA 8 mg/kg, locomotion assessed every 5 minutes over six hours
Description: The effect of the 5-HT1a-receptor agonist 8-OH-PIPAT on L-DOPA-induced fluctuations in locomotion was assessed in the MPTP-lesioned marmoset model of Parkinson's disease.
Marmosets (Callithrix jacchus) (bred in a closed colony at the University of Manchester) are rendered parkinsonian by subcutaneous injection of 2 mg kg^−1 MPTP for 5 consecutive days. The marmosets are allowed to recover for a minimum of 10 weeks until their parkinsonism becomes stable.
A quantitative assessment of locomotor activity was assessed every 5 minutes for the duration of the experiment using computer-based activity monitors.
Locomotion was measured over a six hour period using Benwick activity monitors. These locomotion monitors consist of a visually-shielded open-field arena, the perimeter of which is surrounded by a series of infra-red beams arranged at 5 cm intervals. PC-based software (Amlogger) assesses the number of beams broken. The number of beams broken as part of a locomotor movement (mobile counts) was measured.
Marmosets were split into two groups. The first group received L-DOPA (8 mg/kg) and vehicle for 8-OH PIPAT only whereas the second group received L-DOPA (8 mg/kg) and 8-OH PIPAT (10 mg/kg).

## CCCN(C/C=C/I)C1CCc2cccc(O)c2C1 (racemic) [8-OH-PIPAT, (RS)-trans-8-hydroxy-2-[N-n-propyl-N-(3′-iodo-2′-propenyl)amino]tetralin]
  L-DOPA-stimulated 'on-time' (locomotor activity, mobile counts): increase in L-DOPA-stimulated ‘on-time’
